Results reported in ChEMBL document CHEMBL3988442, “University of Dundee, Small-Polar-MMV Screening Library” (2021).
“And” between values parts separate entries of the source, which are not always exact repeats. Equal values may be shown once.

Tests used:
[1] = molecular target: AMP-activated protein kinase, AMPK; assay: AMP-dependent Kinase enzyme assay. An in vitro enzyme assay that detects ADP turnover that is directly proportional to AMPK activity. This uses naive AMPK that is activated during the assay with MK-8722; assay type: functional, Homo sapiens
[2] = molecular target: ClpP1P2 (Mycobacterium tuberculosis (strain ATCC 25618 / H37Rv), UniProt P9WPC3+P9WPC5); assay: in vitro assay to detect presence of AMC directly proportional to the activity of ClpP1P2. GHDDI collaboration.; assay type: functional
[3] = molecular target: T1, Ubiquitin-activating enzyme e1, putative (Leishmania donovani (strain BPK282A1), UniProt E9BSI1); assay: Leishmania donovani Ubiquitin Activating Enzyme (LdE1); assay type: functional
T1 sequence (E9BSI1 whole entry): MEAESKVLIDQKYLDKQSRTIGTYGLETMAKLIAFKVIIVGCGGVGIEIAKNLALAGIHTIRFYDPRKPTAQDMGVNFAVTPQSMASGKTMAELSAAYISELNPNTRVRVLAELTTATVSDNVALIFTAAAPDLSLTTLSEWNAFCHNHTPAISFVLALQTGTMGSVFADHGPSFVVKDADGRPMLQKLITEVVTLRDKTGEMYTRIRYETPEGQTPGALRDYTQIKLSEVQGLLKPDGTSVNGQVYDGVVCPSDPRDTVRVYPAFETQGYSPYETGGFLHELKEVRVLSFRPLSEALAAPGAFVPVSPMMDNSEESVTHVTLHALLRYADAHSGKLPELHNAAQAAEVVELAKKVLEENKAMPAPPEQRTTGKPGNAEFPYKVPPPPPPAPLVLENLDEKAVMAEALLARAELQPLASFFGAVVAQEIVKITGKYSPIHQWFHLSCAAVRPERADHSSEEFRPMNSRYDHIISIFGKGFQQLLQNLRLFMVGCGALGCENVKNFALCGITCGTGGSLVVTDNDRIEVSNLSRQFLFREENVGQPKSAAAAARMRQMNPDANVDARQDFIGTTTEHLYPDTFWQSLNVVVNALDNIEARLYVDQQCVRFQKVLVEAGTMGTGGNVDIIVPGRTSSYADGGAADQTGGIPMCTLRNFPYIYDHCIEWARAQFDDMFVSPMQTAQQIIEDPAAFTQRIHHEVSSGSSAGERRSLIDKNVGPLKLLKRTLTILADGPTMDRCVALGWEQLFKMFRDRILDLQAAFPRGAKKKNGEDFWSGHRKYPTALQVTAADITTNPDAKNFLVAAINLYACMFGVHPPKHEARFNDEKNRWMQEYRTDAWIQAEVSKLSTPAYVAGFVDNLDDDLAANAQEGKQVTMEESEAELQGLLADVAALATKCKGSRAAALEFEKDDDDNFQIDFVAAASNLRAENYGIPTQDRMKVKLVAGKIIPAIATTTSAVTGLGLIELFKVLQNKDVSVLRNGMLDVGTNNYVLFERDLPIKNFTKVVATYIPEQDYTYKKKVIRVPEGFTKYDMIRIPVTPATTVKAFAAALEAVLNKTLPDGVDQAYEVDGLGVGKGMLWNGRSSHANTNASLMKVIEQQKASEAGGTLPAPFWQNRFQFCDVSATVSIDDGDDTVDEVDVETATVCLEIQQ

[4] = molecular target: Polyketide synthase Pks13 (Mycobacterium tuberculosis (strain ATCC 25618 / H37Rv), UniProt I6X8D2); assay: Mycobacterium tuberculosis Polyketide synthase 13 Thioesterase (PKS13); assay type: functional
[5] = molecular target: T2, Coenzyme A biosynthesis bifunctional protein CoaBC (Mycobacterium tuberculosis (strain ATCC 25618 / H37Rv), UniProt P9WNZ1); assay: Biomol Green assay for MtCoaBC inhibitor, OD650 read; assay type: functional
T2 sequence (P9WNZ1 whole entry): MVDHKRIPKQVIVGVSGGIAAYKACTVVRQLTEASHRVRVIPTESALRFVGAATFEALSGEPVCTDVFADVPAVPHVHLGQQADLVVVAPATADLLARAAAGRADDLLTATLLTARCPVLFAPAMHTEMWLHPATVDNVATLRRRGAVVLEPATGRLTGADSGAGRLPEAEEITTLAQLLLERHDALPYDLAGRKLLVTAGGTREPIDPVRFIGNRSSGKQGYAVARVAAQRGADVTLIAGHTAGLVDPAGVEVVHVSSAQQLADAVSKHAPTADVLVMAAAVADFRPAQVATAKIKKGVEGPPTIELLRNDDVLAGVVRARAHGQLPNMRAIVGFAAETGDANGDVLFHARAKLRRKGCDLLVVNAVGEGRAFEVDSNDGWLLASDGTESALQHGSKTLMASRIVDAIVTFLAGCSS

[6] = test system: Schistosoma mansoni; assay: High throughput screening of compounds against Schistosoma mansoni motility; assay type: functional; parameters: dose or concentration left out as unconfirmed

Row | SMILES | pIC50 [1] | also measured
1 | Cn1cnc(S(=O)(=O)N2C[C@@H]3CC[C@H](C2)N(Cc2ccccn2)C3)c1 | < 4 | –
2 | CC(C)c1cc(NC(=O)c2cccnc2)[nH]n1 | 4.473 and 4.751 | –
3 | CCNC(=O)c1nnc2ccc(N3CCOCC3)cc2n1 | < 4 | –
4 | Cl.Cl.c1cc(COC[C@@H]2CCC[C@@]23CNCCO3)ccn1 | < 4 | –
5 | CC(C)OCCCNC(=O)c1ccc(-c2ccco2)[nH]c1=O | < 4 | –
6 | Cc1cnn(CC2CN(Cc3nnc(-c4occc4C)o3)CCO2)c1 (centres undefined) | < 4 | –
7 | O=C1CC2(CCN(Cc3ccc(-c4ccccc4)s3)C2)C(=O)N1 (centres undefined) | < 4 | –
8 | CCOCC(O)CN1CCN(C(=O)C2CC2)CC1 (centres undefined) | < 4 | –
9 | O=C(NCCNc1ccc(C(F)(F)F)cn1)c1cncc(Br)c1 | 4.385 and < 4 | –
10 | Cl.Cl.c1cncc(OC[C@@H]2CCC[C@@]23CNCCO3)c1 | < 4 | –
11 | CC(C)NC(=O)N1CC[C@@H]2CN(Cc3ccccc3)S(=O)(=O)[C@@H]2CC1 | < 4 | –
12 | CC(C)(C)NC(=O)CNc1ncccn1 | < 4 | –
13 | Cc1cc(-c2cnc(NC3CC3)nc2-c2ccco2)on1 | < 4 and 4.22 | –
14 | CC(C)COc1cncc(N2CCCN(c3ncccn3)CC2)n1 | < 4 | –
15 | Cc1nc(N2CCN(C)CC2)ncc1C(=O)N1CCC(O)(CO)CC1 | < 4 | –
16 | COc1ccc(CC2(CO)CCN(c3cc(C#N)ccn3)CC2)cc1 | < 4 | IC50 [2]: > 100 µM
17 | CN1CCC(c2n[nH]c(=O)n2-c2cccc(Cl)c2)CC1 | < 4 | –
18 | CC(C)c1nc2n(n1)CC(NCc1nnc(C(C)C)o1)CC2 (centres undefined) | < 4 | IC50 [3]: > 100 µM
19 | O=C(NCc1ccccc1)c1nnc2ccc(N3CCOCC3)cc2n1 | < 4 | IC50 [4]: 16 µM and 24.5 µM
20 | Cc1cc(-c2cnc(NC3CCCC3)nc2-c2ccoc2)on1 | < 4 | –
21 | Cc1cccc(-c2nc(CN3CCc4cnc(C)nc4C3)no2)c1 | < 4 | –
22 | CCS(=O)(=O)CC(=O)NC(c1ccc(F)cc1)C1CCCC1 (centres undefined) | < 4 | –
23 | CC(C)c1n[nH]c(C(=O)NC(C)c2ccncc2)c1Br (centres undefined) | < 4 | IC50 [5]: > 30.2 µM
24 | CCc1nnc2n1CCN(C(=O)c1ccc3nc(C)c(C)nc3c1)C2 | < 4 | Percent Effect [6]: -15.27%
25 | CC1(C)Cc2ccccc2-c2nc(NCCO)[nH]c(=O)c21 | 4.722 and 4.636 and 4.548 and 4.621 | IC50 [4]: 16.8 µM and 19.4 µM
26 | O=C(NCC1CC1)C1CN(C(=O)c2cccc(Cl)c2)CC12CCOCC2 (centres undefined) | < 4 | –
27 | Cc1nn(C)c(N2CCOCC2)c1CNC(C)c1ccco1 (centres undefined) | < 4 | Percent Effect [6]: -29.3%
